Assay [1] has as its system plasma Factor VII enzyme activity. Description: Mouse Factor VII dosing / Factor VII Activity Assay. The assay is classed as in vivo. Conditions: percent knock down of plasma Factor VII activity, CD-1 mice, 48 h; for KD FVII 0.03 mg/kg: single IV dose 0.03 mg/kg. The procedure, abridged: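 Female CD-1 mice (~25 g) received a single IV tail-vein dose of lipid-nanoparticle-formulated Factor VII siRNA (0.3 or 0.03 mg/kg). Plasma taken ~48 h later; FVII activity measured chromogenically against vehicle-control plasma standard curve, reported as % knockdown.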

For assay [2], the system named is human leptin. The assay can be described thus: Mouse intravenous tail vein injection of modified synthetic leptin mRNA, human leptin ELISA. The format is in vivo, C57BL/6 mouse. Conditions: human leptin in mouse plasma, 10 μg leptin mRNA, 24 h. On the procedure: Before the tail vein injection, mouse body weights were recorded and diet weighted, with mice grouped according to their body weights. Mice were prepared by warming them under a heating lamp for ˜2 minutes, with the mice about 12 inches from heat lamp.
For the tail vein injection procedure, the mice were placed in a restrainer and their tails cleaned with 70% alcohol. A 27 gauge needle (Becton Dickinson, Catalogue #305109) connected with a 1 ml syringe (Becton Dickinson, Catalogue #309659) was inserted into the tail vein, with bevel facing up, and the syringe plunger was pulled backwards to ensure blood is drawn into the syringe. The desired volume of modified synthetic leptin mRNA was injected by hand with moderate pressure and speed. The needle was then withdrawn and bleeding stopped by adding pressure to injection site with gauze.
Single housed, 8-9 week old, male C57BL/6 mice were used for the in vivo study. FPLC purified modified synthetic leptin mRNA (SEQ ID NO: 5) in which the uridines were substituted with pseudouridine was packaged in a cationic lipid (N:P molar ratio=8:1) and then were diluted in injectable saline at a dose of 10 μg per average group body weight.
On day 0, animals were weighed and sorted according to average body weight. Mice were dosed, and food intake (FI) was recorded, on each of days 1-7 and days 9, 11, and 16.
(§1) Human leptin in mouse plasma was measured by ELISA. Antibodies purchased from the R&D Systems duoset (Cat# DY398E, part#840279 for capture antibody and part#840280 for detection antibody) were reconstituted using PBS and titered, again using PBS. The capture antibody was coated at 4 ug/ml in 30 ul/well on a white Nunc® Maxisorp 384 well plate (Cat#460372). After an overnight incubation at room temperature the capture antibody was aspirated and the plate blocked for 2 hours at room temperature with 90 ul/well of KPL milk blocker (Cat#50-82-00). Once the incubation was completed the plate was aspirated and recombinant standards and samples were added to the plate at 30 ul/well for 2 hours at 37° C. while shaking at 600 rpm. Sample/standard dilutions were made using casein sample diluent. Washing/aspiration 3 times with 100 ul/well followed, using Teknova plate wash solution (Cat# P1192). Next, detection antibody was diluted using casein detection antibody diluent to 12.5 ng/ml and added at 30 ul/well for 2 hours room temperature. After this incubation, the plate was washed again and a solution of poly-streptavidin-HRP (Cat#21140) at a 1:1250 dilution in HRP dilution buffer was added to each well (30 ul/well) and incubated for 30 minutes room temperature. A final wash/aspiration removed the HRP solution and a chemiluminescent substrate was added at 30 ul/well (Cat#1859678 & 1859679). The plate was quickly read using a SpectramaxM5 plate reader with a 50 ms integration time. The dynamic range of the ELISA is from 100-2,000 pg/ml (6.25-125 pM) of human leptin.

Assay [3] has as its system human leptin. The assay can be described thus: Mouse subcutaneous injection of modified synthetic leptin mRNA, human leptin ELISA. The format is in vivo. Conditions: human leptin in mouse plasma, 10 μg leptin mRNA. On the procedure: Prior to subcutaneous injection, mouse body weights were recorded and diet weighted, with mice grouped according to their body weights. The mice were manually restrained and placed on a work surface. Their scruffs were pinched and lifted away from the underlying muscle, the space into which was inserted a 25 gauge needle connected with a 1 ml syringe. The syringe plunger was pulled backwards in such a way as to ensure no fluid was drawn into the syringe, and then the desired volume of leptin mRNA was hand injected with moderate pressure and speed. The needle was then withdrawn and the mice returned to their cages.
8-9 week old, male C57BL/6 mice were used for the in vivo study. FPLC purified modified synthetic leptin mRNA (SEQ ID NO: 5) in which the uridines were substituted with pseudouridine (N:P molar ratio=8:1) packaged in multiple cationic lipid were diluted in injectable saline at a dose of 10 μg per average group body weight.
On day 0, animals were weighed and sorted according to average body weight. ice were dosed at 9 AM and blood was taken at 9 AM on day 0. Blood was also taken at 9 AM on each of days 1 and 2 and assessed for leptin protein levels. Body weight and food intake were also recorded.
as §1, with “leptin. The assay is applicable to plasma from mice, rats and cynomolgus monkeys.” for “leptin.”

Assay [4] deals with PLK-1 mRNA. Description: LS411N Xenograft Assay. The format is in vivo, Nu/Nu mice. The following applies: percent knock down of PLK-1 mRNA vs control in LS411N tumors, IV 3 mg/kg daily for three days. Here is the method: Female Nu/Nu mice (6-8 weeks old) were implanted subcutaneously with 5×10^6 LS411N cells. Tumor growth was monitored by caliper measurement before treatment initiation. Mice bearing 150-250 mm^3 subcutaneous tumors were randomized and enrolled in the study. The stock siRNA formulations were diluted to […] with PBS for dosing. Animals enrolled in different groups received a single daily bolus IV injection of 3 mg/kg siRNA for three days. Tumors were harvested 24 hours post last injection to assess target gene regulation by qRT-PCR.
Lipid nanoparticles comprising lipid compounds of formula (I) and the PLK1-424 siRNA duplex sequence listed above were tested in the LS411N Xenograft Assay. The results of this assay are given in Table 5 below as a percent knock down of PLK-1 mRNA as compared to the control when administered as a single daily dose for three days at a dose of 3 mg/kg.

Turning to `CCCCCCCCCCCC(=O)OCCCCCCOc1cc(CN(C)C)cc(OCCCCCCOC(=O)CCCCCCCCCCC)c1` [Example 59, ((5-((dimethylamino)methyl)-1,3-phenylene)bis(oxy))bis(hexane-6,1-diyl)didodecanoate], the “KD FVII 0.03 mg/kg” value in assay [1] (LNP Chol/DSPC/S010 45/44/9/2) is recorded as 48.24%. The “Leptin expression IV-C57BI/6, 24 h” value in assay [2] turned out to be 8.08 ng/mL. Further, the “Leptin expression SC-C57BI/6, 24 h” value in assay [3] was 1.16 ng/mL.
Take `CCCCC/C=C\C/C=C\CCCCCCCC(=O)OCCCOc1cc(CN(C)C)cc(OCCCOC(=O)CCCCCCC/C=C\C/C=C\CCCCC)c1` [Example 39, (9Z,9′Z,12Z,12′Z)-((5-((dimethylamino)methyl)-1,3-phenylene)bis(oxy))bis(propane-3,1-diyl)bis(octadeca-9,12-dienoate)]: the “LS411 KD 3 × 3 mg/Kg” value in assay [4] (LNP Chol/DSPC/S010 45/44/9/2) stood at 55%. The “Leptin expression IV-C57BI/6, 24 h” value in assay [2] came to 10.47 ng/mL. In addition, the “Leptin expression SC-C57BI/6, 24 h” value in assay [3] came out at 0.79 ng/mL.
Take `CCCCCCCCCC(=O)OCCCCCCCCOc1cc(CN(C)C)cc(OCCCCCCCCOC(=O)CCCCCCCCC)c1` [Example 52, ((5-((dimethylamino)methyl)-1,3-phenylene)bis(oxy))bis(octane-8,1-diyl)bis(decanoate)]: the “KD FVII 0.03 mg/kg” value was determined as 72.5% in assay [1] (LNP Chol/DSPC/PEG-DMG 45/44/9/2) and 73.5% in assay [1] (LNP Chol/DSPC/S010 45/44/9/2). In addition, the “LS411 KD 3 × 3 mg/Kg” value is listed as 69% in assay [4] (LNP Chol/DSPC/PEG-DSG 45/44/9/2) and 50% in assay [4] (LNP Chol/DSPC/S010 45/44/9/2). For the same compound, the “Leptin expression IV-C57BI/6, 24 h” value in assay [2] was found to be 21.18 ng/mL. Moreover, in assay [3], the “Leptin expression SC-C57BI/6, 24 h” value is recorded as 0.85 ng/mL.
Take `CCCCCCCC(=O)OCCCCCCCCCCOc1cc(CN(C)C)cc(OCCCCCCCCCCOC(=O)CCCCCCC)c1` [Example 43, ((5-((dimethylamino)methyl)-1,3-phenylene)bis(oxy))bis(decane-10,1-diyl)dioctanoate]: the “KD FVII 0.3 mg/kg” value in assay [1] (single IV dose 0.3 mg/kg, LNP Chol/DSPC/PEG-DMG 45/44/9/2) is on record as 97.4%. In assay [4] (LNP Chol/DSPC/S010 45/44/9/2), the “LS411 KD 3 × 3 mg/Kg” value came out at 40%. Further, the “Leptin expression IV-C57BI/6, 24 h” value in assay [2] is listed as 13.56 ng/mL. The “Leptin expression SC-C57BI/6, 24 h” value in assay [3] was determined as 0.66 ng/mL.
